Entries after “also recorded” stand apart in the source; their conditions may differ. Read-outs that look alike come from different tables or passages of the source.
Experiments:
[1] = target: T1, RARA (alpha) ligand binding domain (Homo sapiens, UniProt P10276); assay: RAR LBD-SRC1-2 coactivator peptide recruitment assay, agonist format, RARA; type: biochemical
T1 sequence (P10276 183-417 limits assumed): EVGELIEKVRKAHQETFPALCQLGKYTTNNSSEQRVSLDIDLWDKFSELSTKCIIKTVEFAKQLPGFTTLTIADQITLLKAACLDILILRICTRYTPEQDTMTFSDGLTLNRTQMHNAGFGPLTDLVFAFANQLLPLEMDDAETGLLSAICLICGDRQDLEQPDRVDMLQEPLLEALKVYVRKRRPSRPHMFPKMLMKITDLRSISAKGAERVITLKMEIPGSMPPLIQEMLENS
Experimental: RAR ligand binding domain (LBD)‐SRC1‐2 coactivator peptide (NCOA1_677‐700 biotinylated) recruitment assays were established for the three RAR isotypes RARA (alpha), RARB (beta), and RARG (gamma) to determine relative potencies. […] A total of 0.4 μL of a fixed concentration range of test ligands dissolved in dimethyl sulphoxide (DMSO) was added to assay plates using an acoustic liquid dispenser. […] The raw data were transformed to % effect using the equation: compound % effect = 100 × [(X − min)/(max − min)], where X represents the effect in the presence of test compound and max and min are the effects in presence of the maximum and minimum controls, respectively.
The data were plotted to generate concentration‐response profiles and the concentration‐response curves were fit to the data using the four‐parameter logistic smart fit method in the Genedata Screener software (Genedata, Inc).

murine CFs = tested on: murine CFs; design: method as in PMID 24424466; conditions: cited from earlier work
[2] = tested on: human cardiac fibroblasts (CFs); assay: CF proliferation assay (nuclear count)
Experimental: To ensure that these molecules were not general proliferators of all cardiac cells, they were also tested in a human CF proliferation assay31 using nuclear count as the endpoint.

[3] = tested on: human umbilical vein endothelial cells (HUVECs); design: method as in PMID 24424466; conditions: cited from earlier work
human aortic SMCs = tested on: human aortic SMCs; design: method as in PMID 24424466; conditions: cited from earlier work
[4] = tested on: human iPS-derived cardiac progenitor cells (CPCs); assay: CPC proliferation assay (nuclear count); type: cell-based
[5] = tested on: HuES6 hPSC-derived cardiac progenitors; assay: HuES6-derived cardiac progenitors replated on day 5: cell number, RT-qPCR, immunocytochemistry; type: cell-based, human; conditions: for effect on cell proliferation / cell numbers, in words: 1.0 μM, day-5 replated progenitors, 4 days of exposure
Experimental: Insulin and signaling agonists were omitted after 1 day. On days 2‐3, the nascent mesodermal cells were specified to the cardiac lineage using 0.2 μM C‐59 (R&D Tocris) supplementation. Culture medium was replaced daily.
Basal cardiac progenitor medium was composed of DMEM/F12 (ThermoFisher Scientific), insulin/transferrin/selenium supplement, 0.1% human serum albumin (Biological Industries Inc, Cromwell, Connecticut), 1× chemically defined lipids (ThermoFisher Scientific), and antibiotics. RAR agonists (1 μM) were added from the day of passaging the cells. Samples were harvested and monitored after 4 days of treatment.
Cell numbers per well were quantified following single‐cell dissociation with Accutase and using standard Neubauer counting chambers. RT‐qPCR and immunocytochemistry were performed according to standard procedures. RPL37A served as housekeeping gene for normalization.

[6] = tested on: human iPS-derived cardiac progenitor cells (CPCs); assay: CPC proliferation assay (nuclear count); type: cell-based; conditions: primary screen, relative to basic FGF 100 ng/mL
Experimental: The CPC proliferation assay including image and data analysis was performed as previously described.14 Cardiac progenitor marker antibodies are listed in Table S3.
A library of 10 000 compounds was screened in singlicate at three concentrations (0.1, 1.0, and 10 μM) in the CPC proliferation assay. Each plate contained neutral controls, 0.1% DMSO and maximum controls, 100 ng/mL human basic fibroblast growth factor (FGF; Invitrogen, ThermoFisher Scientific, Waltham, Massachusetts). The data were analyzed using the Genedata Screener software (Genedata, Inc, Basel, Switzerland). […] Results were calculated using the following calculation method: compound % effect = 100 × [(X − min)/(max − min)], where X represents a normalized value for the compound based on the neutral and maximum controls.
The library was screened in three‐point concentration response (CR) at 0.1, 1.0, and 10 μM measuring proliferation of human induced pluripotent stem (iPS)‐derived CPCs with nuclear count, as measured by Hoechst staining, as the primary endpoint.

Structure (SMILES): CC1=C(/C=C/C(C)=C/C=C/C(C)=C/C(=O)O)C(C)(C)CCC1 [ATRA, all‐trans retinoic acid]
- top effect (% of maximum control) [1]: 103%
- proliferation of murine CFs (murine CFs): inhibited the proliferation
- CF proliferation, result in words [2]: inactive
- proliferation of HUVECs [3]: promoted the proliferation
- proliferation of human aortic SMCs (human aortic SMCs): inhibited the proliferation
- EC50 ([4]; 10-point CR, variable between occasions, read-out: EC50 variation between occasions, lower end): 50 nM
- EC50 ([4]; 10-point CR, variable between occasions, read-out: EC50 variation between occasions, upper end): > 10000 nM
- EC50 ([4]; 10-point concentration response, read-out: EC50, CPC proliferation): 56 nM
- EC50 ([4]; iPSC-derived CPC proliferation, 10-point concentration response, read-out: CPC pEC50 (converted)): 50.1 nM
- terminal cardiac differentiation, in words ([5]; 1 μM, day-5 replated cells, 4 days): did not acquire a beating phenotype; also recorded: pronounced inhibition of terminal cardiac differentiation
- expression of cardiac progenitor markers vs untreated ([5]; 1 μM, day-5 replated cells, 4 days, with the exception of ISL1): enhanced the expression of cardiac progenitor markers
- effect on cell proliferation / cell numbers, in words [5]: strong positive effects on cell proliferation
- effect on cell proliferation / cell numbers, in words ([5]; listed as RA): increase in cell numbers
- % Effect-normalised cell count ([6]; Log Concentration M -5 (10 μM)): 59%
- % Effect-normalised cell count ([6]; Log Concentration M -6 (1.0 μM)): 14%
- % Effect-normalised cell count ([6]; Log Concentration M -7 (0.1 μM)): 14%

Source: paper PMC6954720, “Discovery of retinoic acid receptor agonists as proliferators of cardiac progenitor cells through a phenotypic screening approach” (Stem Cells Translational Medicine, 2019)
